One may read the IC50 as the midpoint of a concentration-inhibition curve. A lower IC50 goes with higher potency.

The target in this assay is IGF1R Ba/F3 (Homo sapiens, UniProt P08069). As to the kind of experiment: Ba/F3 Cell Viability Inhibition Assay (Tel-TK transformed Ba/F3 lines). The assay is classed as cell-based, murine. Also on record: the printed alternative. The conditions noted are these: Tel-TK (IGF1R) transformed Ba/F3 cells, 48 hours incubation, cell viability (Britelite luminescence). An excerpt: Ba/F3 is a murine IL-3-dependent pro-B lymphoma cell line. Parental Ba/F3 cells are used to generate a panel of sublines whose proliferation and survival is rendered IL-3-independent by stable transduction with individual tyrosine kinases activated by fusion with the amino-terminal portion of TEL (amino acid 1-375) or BCR. In order to generate Ba/F3 cell lines transformed by Tel-Tyrosine Kinase (TK) fusions, parental Ba/F3 cells are infected with a retrovirus harboring each TEL-fusion kinase and subjected to puromycin selection and IL-3 withdrawal to obtain IL-3-independent, transformed Ba/F3 cells.
Sequence of IGF1R Ba/F3 (P08069 999-1274 limits assumed): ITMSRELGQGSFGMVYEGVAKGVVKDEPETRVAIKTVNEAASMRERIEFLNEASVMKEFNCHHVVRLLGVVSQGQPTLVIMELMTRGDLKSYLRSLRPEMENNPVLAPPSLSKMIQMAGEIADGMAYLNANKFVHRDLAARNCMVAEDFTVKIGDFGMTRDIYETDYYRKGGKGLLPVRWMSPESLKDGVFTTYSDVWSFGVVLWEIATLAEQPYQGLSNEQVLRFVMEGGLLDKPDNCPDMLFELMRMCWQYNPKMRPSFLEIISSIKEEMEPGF
Each transformed Ba/F3 cells are cultured in RPMI-1640 media (Gibco Cat #11875093, Carlsbad, Calif.) supplemented with 10% FBS (Hyclone Cat #SV30014.03, Logan, Utah), 4.5 g/L glucose (Sigma #G5400, St.Louis, Mo.), 1.5 g/L sodium bicarbonate (Biowhittaker #17-613E, Walkersville, Md.) and Pen/Strep (Gibco #10378-016, Carlsbad, Calif.). Cells are splitted twice weekly.
The potency of test compounds against various Tel-TK transformed Ba/F3 lines is determined as follows. Exponentially growing BaF3 Tel-TK cells are diluted in fresh medium to 75,000 cells/mL and seeded into 384-well plates (3750 cells/well) at 50 μL/well using a gill liquid dispenser (BioTek, Winooski, Vt., USA). Duplicate plates are run for each cell line. Test and control compounds are serially diluted with DMSO and arrayed in a polypropylene 384-well plate. 50 nL of compound is transferred into the assay plates using a pin-transfer device, and the plates are incubated at 37° C. (5% CO2) for 48 hours. 25 μL Britelite (Perkin Elmer) is added and luminescence is quantified using Analyst GT (Molecular Devices). Custom curve-fitting software is used to produce a logistic fit of percent cell viability as a function of the logarithm of inhibitor concentration. The IC50 is interpolated as the concentration of compound needed to reduce cell viability to 50% of a DMSO control. Parental Ba/F3 cells that are maintained and cultured in presence of IL-3 (1 ng/ml in final) are diluted in fresh medium containing IL-3 (1 ng/ml in final) to 75,000 cells/mL following the same procedure as described above.

In turn, `Cc1cc(Nc2nc(Nc3cc(C)c(C(=O)N4CCOCC4)cc3C)ncc2Cl)n[nH]1` [Compound 32, (4-(5-chloro-4-(5-methyl-1H-pyrazol-3-ylamino)pyrimidin-2-ylamino)-2,5-dimethylphenyl)(morpholino)methanone] had an IC50 of 0.451 µM. As for `Cc1cc(Nc2nc(Nc3cc(C)c(C4CCC(=NO)CC4)cc3C)ncc2Cl)n[nH]1` (stereo not shown) [Compound 33, 4-(4-(5-chloro-4-(5-methyl-1H-pyrazol-3-ylamino)pyrimidin-2-ylamino)-2,5-dimethylphenyl)cyclohexanone oxime], the midpoint of inhibition, the IC50, lay at 0.015 µM. Under `CO/N=C(\C)c1cc(C)c(Nc2ncc(Cl)c(Nc3cc(C)[nH]n3)n2)cc1C` [Compound 34, 1-(4-(5-chloro-4-(5-methyl-1H-pyrazol-3-ylamino)pyrimidin-2-ylamino)-2,5-dimethylphenyl)ethanone O-methyl oxime] stands 0.269 µM; under `C/C(=N\OCCN(C)C)c1cc(C)c(Nc2ncc(Cl)c(Nc3cc(C)[nH]n3)n2)cc1C` [Compound 35, 1-(4-(5-chloro-4-(5-methyl-1H-pyrazol-3-ylamino)pyrimidin-2-ylamino)-2,5-dimethylphenyl)ethanone O-2-(dimethylamino)ethyl oxime], 0.121 µM. Under `C/C(=N\OCCN1CCOCC1)c1cc(C)c(Nc2ncc(Cl)c(Nc3cc(C)[nH]n3)n2)cc1C` [Compound 36, 1-(4-(5-chloro-4-(5-methyl-1H-pyrazol-3-ylamino)pyrimidin-2-ylamino)-2,5-dimethylphenyl)ethanone O-2-morpholinoethyl oxime] stands 0.187 µM. As for `Cc1cc(Nc2nc(Nc3cc(C)c([C@H]4CC[C@H](N5CCOCC5)CC4)cc3C)ncc2Cl)n[nH]1` [Compound 37, 5-chloro-N^2-(2,5-dimethyl-4-(4-trans-morpholinocyclohexyl)phenyl)-N^4-(5-methyl-1H-pyrazol-3-yl)pyrimidine-2,4-diamine], the figure is 0.011 µM; as for `Cc1cc(Nc2nc(Nc3cc(C)c([C@H]4CC[C@@H](N5CCOCC5)CC4)cc3C)ncc2Cl)n[nH]1` [Compound 38, 5-chloro-N^2-(2,5-dimethyl-4-(4-cis-morpholinocyclohexyl)phenyl)-N^4-(5-methyl-1H-pyrazol-3-yl)pyrimidine-2,4-diamine], 0.009 µM; as for `Cc1cc(Nc2nc(Nc3cc(C)c(CN4CCOCC4)cc3C)ncc2Cl)n[nH]1` [Compound 39, 5-Chloro-N^2-(2,5-dimethyl-4-(morpholinomethyl)phenyl)-N^4-(5-methyl-1H-pyrazol-3-yl)pyrimidine-2,4-diamine], 0.151 µM. Consider `Cc1cc(Nc2nc(Nc3cc(C)c(C4CCC(=O)CC4)cc3C)ncc2C(F)(F)F)n[nH]1` [Compound 40, 4-(2,5-dimethyl-4-(4-(5-methyl-1H-pyrazol-3-ylamino)-5-(trifluoromethyl)pyrimidin-2-ylamino)phenyl)cyclohexanone], for which half-maximal inhibition (IC50) required 0.049 µM. As for `Cc1cc(Nc2nc(Nc3cc(C)c([C@H]4CC[C@H](O)CC4)cc3C)ncc2C(F)(F)F)n[nH]1` [Compound 41, trans-4-(2,5-dimethyl-4-(4-(5-methyl-1H-pyrazol-3-ylamino)-5-(trifluoromethyl)pyrimidin-2-ylamino)phenyl)cyclohexanol], the figure is 0.025 µM; as for `Cc1cc(Nc2nc(Nc3cc(C)c([C@H]4CC[C@@H](O)CC4)cc3C)ncc2C(F)(F)F)n[nH]1` [Compound 42, cis-4-(2,5-dimethyl-4-(4-(5-methyl-1H-pyrazol-3-ylamino)-5-(trifluoromethyl)pyrimidin-2-ylamino)phenyl)cyclohexanol], 0.053 µM. As for `Cc1cc(Nc2nc(Nc3cc(C)c([C@H]4CC[C@@H](N5CCCCC5)CC4)cc3C)ncc2Cl)n[nH]1` [Compound 43, Cis-5-chloro-N2-(2,5-dimethyl-4-(4-(pipcridin-1-yl)cyclohexyl)phenyl)-N4-(5-methyl-1H-pyrazol-3-yl)pyrimidine-2,4-diamine], the figure is 0.008 µM; as for `Cc1cc(Nc2nc(Nc3cc(C)c([C@H]4CC[C@H](N5CCCCC5)CC4)cc3C)ncc2Cl)n[nH]1` [Compound 44, Trans-5-chloro-N2-(2,5-dimethyl-4-(4-(piperidin-1-yl)cyclohexyl)phenyl)-N4-(5-methyl-1H-pyrazol-3-yl)pyrimidine-2,4-diamine], 0.007 µM. `Cc1cc(Nc2nc(Nc3cc(C)c([C@H]4CC[C@H](O)CC4)cc3C)ncc2Cl)n[nH]1` [Compound 45, trans-4-(4-(5-chloro-4-(5-rnethyl-1H-pyrazol-3-ylamino)pyrimidin-2-ylamino)-2,5-dimethylphenyl)cyclohexanol]: the 50% inhibitory concentration (IC50) is 0.014 µM. Under `Cc1cc(Nc2nc(Nc3cc(C)c([C@H]4CC[C@H](NC5CC5)CC4)cc3C)ncc2Cl)n[nH]1` [Compound 46, Trans-5-chloro-N2-(4-(4-(cyclopropylamino)cyclohexyl)-2,5-dimethylphenyl)-N4-(5-methyl-1H-pyrazol-3-yl)pyrimidine-2,4-diamine] stands 0.016 µM; under `Cc1cc(Nc2nc(Nc3cc(C)c([C@H]4CC[C@@H](NC5CC5)CC4)cc3C)ncc2Cl)n[nH]1` [Compound 47, Cis-5-chloro-N2-(4-(4-(cyclopropylamino)cyclohexyl)-2,5-dimethylphenyl)-N4-(5-methyl-1H-pyrazol-3-yl)pyrimidine-2,4-diamine], 0.017 µM.

Compound `Cc1cc(Nc2nc(Nc3cc(C)c([C@H]4CC[C@@H](N5CCCCC5)CC4)cc3F)ncc2Cl)n[nH]1` [Compound 48, Cis-5-chloro-N2-(2-fluoro-5-methyl-4-(4-(piperidin-1-yl)cyclohexyl)phenyl)-N4-(5-methyl-1H-pyrazol-3-yl)pyrimidine-2,4-diamine] registered an IC50 of 0.021 µM.

On to `Cc1cc(Nc2nc(Nc3cc(C)c([C@H]4CC[C@H](N5CCCCC5)CC4)cc3F)ncc2Cl)n[nH]1` [Compound 49, Trans-5-chloro-N2-(2-fluoro-5-methyl-4-(4-(piperidin-1-yl)cyclohexyl)phenyl)-N4-(5-methyl-1H-pyrazol-3-yl)pyrimidine-2,4-diamine], for which the IC50 came to 0.04 µM.

Turning to `Cc1cc(Nc2nc(Nc3cc(C)c([C@H]4CC[C@H](N5CCOCC5)CC4)cc3F)ncc2Cl)n[nH]1` [Compound 50, Trans-5-chloro-N2-(2-fluoro-5-methyl-4-(4-morpholinocyclohexyl)phenyl)-N4-(5-methyl-1H-pyrazol-3-yl)pyrimidine-2,4-diamine], the IC50 worked out at 0.031 µM. As for `Cc1cc(Nc2nc(Nc3cc(C)c([C@H]4CC[C@@H](N5CCOCC5)CC4)cc3F)ncc2Cl)n[nH]1` [Compound 51, Cis-5-chloro-N2-(2-fluoro-5-methyl-4-(4-morpholinocyclohexyl)phenyl)-N4-(5-methyl-1H-pyrazol-3-yl)pyrimidine-2,4-diamine], the figure is 0.4 µM; as for `Cc1cc(Nc2nc(Nc3cc(C)c([C@H]4CC[C@@H](N5CCN(C)CC5)CC4)cc3F)ncc2Cl)n[nH]1` [Compound 52, Cis-5-chloro-N2-(2-fluoro-5-methyl-4-(4-(4-methylpiperazin-1-yl)cyclohexyl)phenyl)-N4-(5-methyl-1H-pyrazol-3-yl)pyrimidine-2,4-diamine], 0.024 µM; as for `Cc1cc(Nc2nc(Nc3cc(C)c([C@H]4CC[C@H](N5CCN(C)CC5)CC4)cc3F)ncc2Cl)[nH]n1` [Compound 53, Trans-5-chloro-N2-(2-fluoro-5-methyl-4-(4-(4-methylpiperazin-1-yl)cyclohexyl)phenyl)-N4-(5-methyl-1H-pyrazol-3-yl)pyrimidine-2,4-diamine], 0.025 µM. Compound `Cc1cc(Nc2nc(Nc3cc(C)c([C@H]4CC[C@@H](N5CC[C@H](O)C5)CC4)cc3F)ncc2Cl)n[nH]1` [Compound 54, (S)-1-((Cis)-4-(4-(5-chloro-4-(5-methyl-1H-pyrazol-3-ylamino)pyrimidin-2-ylamino)-5-fluoro-2-methylphenyl)cyclohexyl)pyrrolidin-3-ol] returned an IC50 of 0.016 µM. As for `Cc1cc(Nc2nc(Nc3cc(C)c([C@H]4CC[C@H](N5CC[C@H](O)C5)CC4)cc3F)ncc2Cl)n[nH]1` [Compound 55, (S)-1-((Trans)-4-(4-(5-chloro-4-(5-methyl-1H-pyrazol-3-ylamino)pyrimidin-2-ylamino)-5-fluoro-2-methylphenyl)cyclohexyl)pyrrolidin-3-ol], the figure is 0.032 µM; as for `CCN(CC)[C@H]1CC[C@@H](c2cc(F)c(Nc3ncc(Cl)c(Nc4cc(C)[nH]n4)n3)cc2C)CC1` [Compound 56, 5-chloro-N2-(4-((cis)-4-(diethylamino)cyclohexyl)-2-fluoro-5-methylphenyl)-N4-(5-methyl-1H-pyrazol-3-yl)pyrimidine-2,4-diamine], 0.025 µM.

The record behind these values is patent US8445505B2 (IRM LLC, priority 2008, dated 2013).
